Laboratory results: patent US20210032257A1, “(E)-1-(4-(DIMETHYLAMINO)BUT-2-ENOYL)PYRROLIDIN-3-YL 4-((3-ISOPROPYL-5-METHYLPYRAZOLO[1,5-A]PYRIMIDIN-7-YL)AMINO)PIPERIDINE-1-CARBOXYLATE FOR INHIBITING CDK7” (Eli Lilly and Company, priority 2017, published 2021)

What was measured:
[1] = tested on: phospho-carboxyl terminal domain (Ser5) in HCT116 cells; test: p-CTD (S5) cell based Acumen assay; conditions: Homo sapiens, HCT-116, 4 hours, read-out: Relative IC50 for pCTD Ser5
Description: HCT116 cells (ATCC CCL-247) are cultured in McCoy's 5A Medium Modified media supplemented with 10% FBS, 1% NaPyr and 1% Pen/Strep and plated (prior to becoming 70% confluent) in 96-well flat-bottom plates at a density of 5,000 cells per well in 100 μL volume. The cells are incubated overnight in a cell culture incubator (5% CO2, 95% Relative Humidity (RH) and 37° C.) and allowed to attach to the plate. The following morning, the cells are dosed with compounds. Compound inhibitors are solubilized at 60 μM in culture medium containing 0.6% DMSO. Subsequently compound serial dilutions (1:3) are prepared over a 60 μM to 0.003 μM range. […]
The following day cells are washed three times with PBS (100 μL/well) and incubated with 50 μL/well of secondary antibody (1:2000 dilution, Goat anti-rabbit IgM ALEXA FLUOR™ 488) in PBS for 1 hour at room temperature. […] Plates are analyzed on Acumen on FL2 (mean intensity), and FL3 (total intensity). Fluorescence plates are scanned with ACUMEN EXPLORER™ [Laser-scanning fluorescence microplate cytometer manufactured by TTP LABTECH LTD] to measure anti-phospho-carboxyl terminal domain at Serine 5 (pCTD). […] The IC50 is determined by curve fitting to a four parameter logistic for each output using GENE DATA™.

[2] = tested on: HLE; test: Biomarker study proliferation (CellTiter-Glo); assay type: cell-based
Procedure, shortened: (§1)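 Seven days' exposure to a 10-point threefold dilution series precedes the CellTiter-Glo luminescence read. Plating uses 5000 cells/well in supplier-recommended medium, and 5 μM staurosporine defines maximal inhibition.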

[3] = tested on: NCIH526; test: Biomarker study proliferation (CellTiter-Glo); assay type: cell-based
Procedure, shortened: as §1

[4] = tested on: NIHOVCAR3; test: Biomarker study proliferation (CellTiter-Glo); assay type: cell-based
Procedure, shortened: as §1

[5] = tested on: SNU869; test: Biomarker study proliferation (CellTiter-Glo); assay type: cell-based
Procedure, shortened: as §1

[6] = biological target: CDK7/CyclinH/Mat1 (Homo sapiens, UniProt P50613); test: Biochemical assay for inhibition of CDK7/CyclinH/MAT1 (radiolabel filter binding)
Sequence of CDK7/CyclinH/Mat1 (P50613 whole entry): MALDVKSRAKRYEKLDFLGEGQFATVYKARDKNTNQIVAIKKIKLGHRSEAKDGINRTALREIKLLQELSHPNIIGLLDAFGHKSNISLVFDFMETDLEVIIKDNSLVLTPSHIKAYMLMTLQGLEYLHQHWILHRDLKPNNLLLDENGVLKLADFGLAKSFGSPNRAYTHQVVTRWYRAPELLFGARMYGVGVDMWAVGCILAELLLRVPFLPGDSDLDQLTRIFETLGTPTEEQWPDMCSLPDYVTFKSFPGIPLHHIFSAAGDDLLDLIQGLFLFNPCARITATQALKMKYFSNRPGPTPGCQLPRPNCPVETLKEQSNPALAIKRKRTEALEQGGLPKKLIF
Sequence of CDK7/CyclinH/Mat1 (P51946 whole entry partner): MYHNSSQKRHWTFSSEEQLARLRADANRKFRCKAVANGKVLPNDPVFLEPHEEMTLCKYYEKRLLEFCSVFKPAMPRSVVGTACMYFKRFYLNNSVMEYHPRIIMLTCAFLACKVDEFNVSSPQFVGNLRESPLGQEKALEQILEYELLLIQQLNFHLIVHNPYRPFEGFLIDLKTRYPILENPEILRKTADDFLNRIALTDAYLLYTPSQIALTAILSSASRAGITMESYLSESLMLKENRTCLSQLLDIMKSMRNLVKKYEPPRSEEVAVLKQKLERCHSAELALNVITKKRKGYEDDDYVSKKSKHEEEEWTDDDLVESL
Sequence of CDK7/CyclinH/Mat1 (P51948 whole entry partner): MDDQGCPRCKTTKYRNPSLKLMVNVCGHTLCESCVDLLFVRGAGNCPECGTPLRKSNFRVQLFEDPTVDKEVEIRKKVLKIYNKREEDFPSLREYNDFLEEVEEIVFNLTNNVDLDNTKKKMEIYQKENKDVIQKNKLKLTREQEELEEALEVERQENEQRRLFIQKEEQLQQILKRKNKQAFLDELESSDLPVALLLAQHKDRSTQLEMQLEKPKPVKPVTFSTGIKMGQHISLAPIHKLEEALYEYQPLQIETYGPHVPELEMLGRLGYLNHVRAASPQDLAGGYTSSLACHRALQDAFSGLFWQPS
Description: The purpose of this assay is to measure the ability of a compound of the invention to inhibit CDK7/CyclinH/Mat1 complex kinase activity.
The IC50 activity of the inhibitor is determined using radiolabel filter binding (FB) assays using the purified human recombinant enzyme in the presence of ATP//[3^3P]ATP and peptide substrate. The ATP concentrations chosen are at or near the enzyme Km for ATP.
Reactions are carried out in 96 well polystyrene plates in a final volume of 25 μL per well. 5 μL of test compound in 20% DMSO, 10 μL of substrate solution (ATP/33PATP and CDK7/9 tide) and 10 μL of enzyme solution are mixed. […] The enzyme solution is prepared for a final concentration of 1 nM CDK7/CyclinH/Mat1 enzyme [Proqinase 0366-0360-4 Lot 002)] diluted in kinase buffer. Test compounds are serially diluted 1:3 in 20% DMSO to create a 10 point curve at a starting concentration of 20 μM. 20% DMSO buffer alone without test compound is employed as high control (full activity in the absence of any inhibitor), 500 mM EDTA is used to determine the level of background in the absence of enzyme activity (low control). After mixing 5 μL of compounds with 10 μL of enzyme solution the plate is incubated for 0 or 180 minutes at 22° C. After that time the reaction is initiated by the addition of 10 μL substrate solution and incubated for 50 minutes at 22° C. The reaction is terminated by the addition of 80 μL of cold 10% ortophosphoric solution. The Filter Plates (opaque, non-sterile filter plates) are prewashed with 10 μL of 10% orthophosphoric solution to each well. 100 μL of the mixture are transferred to a phosphocellulose filter and incubated at room temperature for 45 minutes. Filter plates are washed with 200 μL 0.5% orthophosphoric acid 3 times on a filter plate processor. Incorporation of 33Pi (counting of “cpm”) is determined by adding 80 μL of MICROSCINT™ to each well and read on a counter after an hour. Data is processed through a [sequence] […] ® tool. Data are analyzed using a 4-parameter nonlinear logistic equation (four-parameter logistic concentration-response curve): Y=bot+[(top-bot)/1+(x/IC50)slope] where Y=% inhibition, X=concentration yielding y % inhibition, Bottom=minimum value of y attained by curve, Top=maximum value of y attained by curve and Slope=steepness of curve at IC50. % Inh=[(median Max−x/median Max−median Min)]·100
IC50: concentration of compound that reduces a given response (ligand binding, enzyme response) by 50%.

Cc1cc(NC2CCN(C(=O)O[C@H]3CCN(C(=O)/C=C/CN(C)C)C3)CC2)n2ncc(C(C)C)c2n1 [Example 1, [(3S)-1-[(E)-4-(dimethylamino)but-2-enoyl]pyrrolidin-3-yl] 4-[(3-isopropyl-5-methyl-pyrazolo[1,5-a]pyrimidin-7-yl)amino]piperidine-1-carboxylate]
IC50 [1]: 140 nM
IC50 ([2]; Homo sapiens, 168 h, read-out: Anti-proliferation effect IC50): 30 nM
Anti-proliferation effect % Inh. ([2]; LIVER, 7 days): 77%
Anti-proliferation effect Outcome ([2]; LIVER, 7 days): Cytotoxic (cytotoxic (IC50<1 μM and % inhibition ≥70%))
IC50 ([3]; Homo sapiens, NCI-H526, 168 h, read-out: Anti-proliferation effect IC50): 18 nM
Anti-proliferation effect % Inh. ([3]; NCIH526, LUNG, 7 days): 94%
Anti-proliferation effect Outcome ([3]; NCIH526, LUNG, 7 days): Cytotoxic (cytotoxic (IC50<1 μM and % inhibition ≥70%))
IC50 ([4]; Homo sapiens, OVCAR-3, 168 h, read-out: Anti-proliferation effect IC50): 40 nM
Anti-proliferation effect % Inh. ([4]; NIHOVCAR3, OVARY, 7 days): 96%
Anti-proliferation effect Outcome ([4]; NIHOVCAR3, OVARY, 7 days): Cytotoxic (cytotoxic (IC50<1 μM and % inhibition ≥70%))
IC50 ([5]; 168 h, read-out: Anti-proliferation effect IC50): 52 nM
Anti-proliferation effect % Inh. ([5]; SNU869, BILIARY, 7 days): 60%
Anti-proliferation effect Outcome ([5]; SNU869, BILIARY, 7 days): Cytostatic (cytostatic (IC50<1 μM and % inhibition <70%))
IC50 ([6]; IC50 in CDK7, 3 hours of preincubation of CDK7 enzyme): 2.37 nM
IC50 ([6]; IC50 in CDK7, without preincubation): 17.3 nM
